The values that follow come from patent publication US9346809B2 (LEO PHARMA A/S, priority 2009, dated 2016).

Common to all, as to format: biochemical
For experiment [1], the target named is T1, JAK3 (catalytic domain, His-tag) (Homo sapiens, UniProt P52333).
T1 construct: All four purified enzymes contain only the catalytic domain; His (N); purchased Carna Biosciences, Inc; host or cells: baculovirus expression system
Nature of the experiment: JAK kinase assay (HTRF, phosphorylation of TK substrate-biotin), JAK3. The note with it: ATP at Km (2 μM). A digest of the protocol:
(§1)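 Per reaction, 5 ng JAK1, 0.1 ng JAK2, 0.3 ng JAK3 or 0.8 ng TYK2 (baculovirus-expressed catalytic domains) acted on 1 μM TK substrate-biotin at Km ATP for 20-30 min, RT. Phosphorylation measured by HTRF.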
A general note: TR-FRET usually uses a lanthanide donor and a delayed reading to cut background.

The target in experiment [2] is T2, TYK2 (aa 871-1187, catalytic domain, GST-tag) (Homo sapiens, UniProt P29597).
T2 construct: JAK1 (aa 850-1154) and TYK2 (aa 871-1187) are expressed with an N-terminally fused GST-tag; GST (N); purchased Carna Biosciences, Inc; host or cells: baculovirus expression system
T2 sequence (P29597 871-1187): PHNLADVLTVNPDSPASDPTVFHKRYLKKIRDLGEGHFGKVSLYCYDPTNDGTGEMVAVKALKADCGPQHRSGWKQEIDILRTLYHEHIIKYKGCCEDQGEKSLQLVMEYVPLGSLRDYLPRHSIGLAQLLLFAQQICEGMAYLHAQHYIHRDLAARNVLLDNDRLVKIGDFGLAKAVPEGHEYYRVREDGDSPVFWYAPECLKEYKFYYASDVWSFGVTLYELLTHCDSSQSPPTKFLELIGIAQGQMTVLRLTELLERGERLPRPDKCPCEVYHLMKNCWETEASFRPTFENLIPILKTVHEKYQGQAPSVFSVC
Nature of the experiment: JAK kinase assay (HTRF, phosphorylation of TK substrate-biotin), TYK2. To be noted: ATP at Km (13 μM). Summed up: as §1

For experiment [3], the target named is T3, JAK1 (aa 850-1154, catalytic domain, GST-tag) (Homo sapiens, UniProt P23458).
T3 construct: JAK1 (aa 850-1154) and TYK2 (aa 871-1187) are expressed with an N-terminally fused GST-tag; GST (N); purchased Carna Biosciences, Inc; host or cells: baculovirus expression system
T3 sequence (P23458 850-1154): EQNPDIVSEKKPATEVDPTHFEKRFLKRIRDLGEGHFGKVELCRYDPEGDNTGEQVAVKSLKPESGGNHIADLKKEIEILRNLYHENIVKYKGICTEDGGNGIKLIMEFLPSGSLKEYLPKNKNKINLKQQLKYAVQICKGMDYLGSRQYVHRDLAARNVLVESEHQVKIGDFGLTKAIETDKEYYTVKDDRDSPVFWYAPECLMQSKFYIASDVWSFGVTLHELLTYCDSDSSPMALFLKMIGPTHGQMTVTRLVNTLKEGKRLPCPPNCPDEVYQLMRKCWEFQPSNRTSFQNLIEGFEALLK
Nature of the experiment: JAK kinase assay (HTRF, phosphorylation of TK substrate-biotin), JAK1. To be noted: ATP at Km (7 μM). Summed up: as §1

Experiment [4] concerns the target T4, JAK2 (catalytic domain, His-tag) (Homo sapiens, UniProt O60674).
T4 construct: All four purified enzymes contain only the catalytic domain; His (N); purchased Carna Biosciences, Inc; host or cells: baculovirus expression system
Nature of the experiment: JAK kinase assay (HTRF, phosphorylation of TK substrate-biotin), JAK2. To be noted: ATP at Km (4 μM). A digest of the protocol:
as §1

The mark [5] stands for this setting: read-out: JAK3 kinase inhibitory activity (EC50 indicator).
[6] abbreviates: read-out: TYK2 kinase inhibitory activity (EC50 indicator).
Where [7] appears, read: read-out: JAK1 kinase inhibitory activity (EC50 indicator).
The mark [8] stands for this setting: read-out: JAK2 kinase inhibitory activity (EC50 indicator).
Where [9] appears, read: HTRF assay, read-out: JAK3 kinase inhibitory activity (EC50 indicator).
The mark [10] stands for this setting: HTRF assay, read-out: TYK2 kinase inhibitory activity (EC50 indicator).
Where [11] appears, read: HTRF assay, read-out: JAK1 kinase inhibitory activity (EC50 indicator).
[12] abbreviates: HTRF assay, read-out: JAK2 kinase inhibitory activity (EC50 indicator).
Where [13] appears, read: HTRF assay, read-out: JAK3 kinase inhibitory activity (EC50).
[14] abbreviates: HTRF assay, read-out: TYK2 kinase inhibitory activity (EC50).
Where [15] appears, read: HTRF assay, read-out: JAK1 kinase inhibitory activity (EC50).
Where [16] appears, read: HTRF assay, read-out: JAK2 kinase inhibitory activity (EC50).

Read-outs that look alike come from different tables or passages of the source.

T1 sequence (P52333 822-1111 limits assumed): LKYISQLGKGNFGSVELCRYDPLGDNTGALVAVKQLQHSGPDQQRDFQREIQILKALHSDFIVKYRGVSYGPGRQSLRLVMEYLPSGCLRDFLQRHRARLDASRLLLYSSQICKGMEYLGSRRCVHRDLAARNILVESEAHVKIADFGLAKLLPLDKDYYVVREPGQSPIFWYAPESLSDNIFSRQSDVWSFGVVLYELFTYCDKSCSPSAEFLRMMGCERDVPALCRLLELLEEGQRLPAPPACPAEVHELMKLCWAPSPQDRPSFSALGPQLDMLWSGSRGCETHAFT
T4 sequence (O60674 849-1124 limits assumed): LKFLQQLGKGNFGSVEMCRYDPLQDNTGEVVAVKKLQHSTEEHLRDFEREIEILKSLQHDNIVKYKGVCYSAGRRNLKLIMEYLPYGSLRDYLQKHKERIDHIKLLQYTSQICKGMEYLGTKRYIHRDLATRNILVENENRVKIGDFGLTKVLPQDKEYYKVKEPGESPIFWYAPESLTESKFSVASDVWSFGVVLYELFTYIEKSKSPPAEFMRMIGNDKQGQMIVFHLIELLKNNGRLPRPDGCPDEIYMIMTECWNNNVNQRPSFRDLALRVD

In general, EC50 refers to the concentration that produces a half-maximal response. As to `O=C(c1ccc2[nH]cnc2c1)N1CCN(c2ncnc3[nH]ccc23)CC12CC2` [Example 162, (1H-Benzoimidazol-5-yl)-[7-(7H-pyrrolo[2,3-d]pyrimidin-4-yl)-4,7-diaza-spiro[2.5]oct-4-yl]-methanone], the 50% effective concentration (EC50) in experiment [1] (setting [5]) is 100 to 500 nM; in experiment [2] (setting [6]), > 500 nM; in experiment [3] (setting [7]), < 100 nM; in experiment [4] (setting [8]), < 100 nM.

`CC(C)CNS(=O)(=O)c1csc(C(=O)N2CCN(c3ncnc4[nH]ccc34)CC23CC3)c1` [Example 423, 5-[7-(7H-Pyrrolo[2,3-d]pyrimidin-4-yl)-4,7-diaza-spiro[2.5]octane-4-carbonyl]-thiophene-3-sulfonic acid isobutyl-amide]: the EC50 in experiment [1] (setting [9]) is 100 to 500 nM; in experiment [2] (setting [10]) it was > 500 nM; in experiment [3] (setting [11]), < 100 nM; in experiment [4] (setting [12]) it was < 100 nM.

For the compound `NS(=O)(=O)c1ccc(C(=O)N2C3CCC2CN(c2ncnc4[nH]ccc24)C3)o1` [Example 203], the EC50 was < 100 nM in experiment [1] (setting [5]), > 500 nM in experiment [2] (setting [6]), < 100 nM in experiment [3] (setting [7]) and < 100 nM in experiment [4] (setting [8]).

On to `S=C(c1cc2c(s1)CCC2)N1CCN(c2ncnc3[nH]ccc23)CC12CC2` [Example 440, (5,6-Dihydro-4H-cyclopenta[b]thiophen-2-yl)-[7-(7H-pyrrolo[2,3-d]Pyrimidin-4-yl)-4,7-diaza-spiro[2.5]oct-4-yl]-methanethione], for which the half-maximal effective concentration (EC50) is 100 to 500 nM in experiment [1] (setting [13]), 100 to 500 nM in experiment [2] (setting [14]), < 100 nM in experiment [3] (setting [15]) and < 100 nM in experiment [4] (setting [16]).

`N#Cc1ccc(CC(=O)N2C[C@@H]3C[C@H]2CN3c2ncnc3[nH]ccc23)cc1` [Example 278, 4-{2-Oxo-2-[5-(7H-pyrrolo[2,3-d]pyrimidin-4-yl)-2,5-diaza-bicyclo[2.2.1]hept-2-yl]-ethyl}-benzonitrile]: the concentration giving a half-maximal response (EC50) in experiment [1] (setting [9]), in experiment [2] (setting [10]), in experiment [3] (setting [11]) and in experiment [4] (setting [12]) was > 500 nM in each case.

As to `N#CCc1cccc(CC(=O)N2CCN(c3nc(N)nc4[nH]ccc34)CC23CC3)c1` [Example 306, (3-{2-[7-(2-Amino-7H-pyrrolo[2,3-d]pyrimidin-4-yl)-4,7-diaza-spiro[2.5]oct-4-yl]-2-oxo-ethyl}-phenyl)-acetonitrile], the EC50 in experiment [1] (setting [9]) was 100 to 500 nM; in experiment [2] (setting [10]), > 500 nM; in experiment [3] (setting [11]), 100 to 500 nM; in experiment [4] (setting [12]), 100 to 500 nM.

On to `N#Cc1cccc(C(=O)N2CCN(c3ncnc4[nH]ccc34)CC23CC3)c1` [Example 44, 3-[7-(7H-Pyrrolo[2,3-d]pyrimidin-4-yl)-4,7-diazaspiro[2.5]octane-4-carbonyl]benzonitrile], for which the EC50 in experiment [1] (setting [5]), in experiment [2] (setting [6]), in experiment [3] (setting [7]) and in experiment [4] (setting [8]) was < 100 nM throughout.

Consider `Cc1ccc(C(=O)N2C[C@@H]3C[C@H]2CN3c2ncnc3[nH]ccc23)s1` [Example 265, (5-Methyl-thiophen-2-yl)-[5-(7H-pyrrolo[2,3-d]pyrimidin-4-yl)-2,5-diaza-bicyclo[2.2.1]hept-2-yl]-methanone], for which the EC50 in experiment [1] (setting [9]), in experiment [2] (setting [10]), in experiment [3] (setting [11]) and in experiment [4] (setting [12]) was > 500 nM throughout.

For the compound `N#CCc1ccc(C(=O)N2CCN(c3ncnc4[nH]ccc34)CC23CC3)cc1` [Example 18, {4-[7-(7H-Pyrrolo[2,3-d]pyrimidin-4-yl)-4,7-diazaspiro[2.5]octane-4-carbonyl]-phenyl}acetonitrile], the EC50 in experiment [1] (setting [5]) was 100 to 500 nM; in experiment [2] (setting [6]), 100 to 500 nM; in experiment [3] (setting [7]) it was < 100 nM; in experiment [4] (setting [8]), < 100 nM.

Turning to `CCCCNC(=O)N1CCN(c2ncnc3[nH]ccc23)CC12CC2` [Example 444, 7-(7H-Pyrrolo[2,3-d]pyrimidin-4-yl)-4,7-diaza-spiro[2.5]octane-4-carboxylic acid butylamide], the EC50 is 100 to 500 nM in experiment [1] (setting [13]), > 500 nM in experiment [2] (setting [14]), < 100 nM in experiment [3] (setting [15]) and < 100 nM in experiment [4] (setting [16]).

As to `N#Cc1ccc(C(F)(F)C(=O)N2[C@@H]3CC[C@H]2CN(c2ncnc4[nH]ccc24)C3)cc1` [Example 65, 4-{1,1-Difluoro-2-oxo-2-[3-(7H-pyrrolo[2,3-d]pyrimidin-4-yl)-3,8-diaza-bicyclo[3.2.1]oct-8-yl]-ethyl}-benzonitrile], the EC50 was 100 to 500 nM in experiment [1] (setting [5]), > 500 nM in experiment [2] (setting [6]), 100 to 500 nM in experiment [3] (setting [7]) and < 100 nM in experiment [4] (setting [8]).

As for `O=C1CC(C(=O)N2CCN(c3ncnc4[nH]ccc34)CC23CC3)c2ccccc21` (centres unmarked) [Example 126, 3-[7-(7H-Pyrrolo[2,3-d]pyrimidin-4-yl)-4,7-diaza-spiro[2.5]octane-4-carbonyl]-indan-1-one], the EC50 in experiment [1] (setting [5]) is 100 to 500 nM; in experiment [2] (setting [6]), > 500 nM; in experiment [3] (setting [7]), < 100 nM; in experiment [4] (setting [8]), < 100 nM.

As to `N#CCc1cccc(CC(=O)N2[C@@H]3CC[C@@H]2CN(c2ncnc4[nH]ccc24)C3)c1` [Example 346, (3-{2-Oxo-2-[3-(7H-pyrrolo[2,3-d]pyrimidin-4-yl)-3,8-diaza-bicyclo[3.2.1]oct-8-yl]-ethyl}-phenyl)-acetonitrile], the EC50 in experiment [1] (setting [9]) was > 500 nM; in experiment [2] (setting [10]) it was > 500 nM; in experiment [3] (setting [11]) it was 100 to 500 nM; in experiment [4] (setting [12]), 100 to 500 nM.

For `Cc1c[nH]c2ncnc(N3CCN(C(=O)Cc4ccc(C#N)cc4)C4(CC4)C3)c12` [Example 334, 4-{2-[7-(5-Methyl-7H-pyrrolo[2,3-d]pyrimidin-4-yl)-4,7-diaza-spiro[2.5]oct-4-yl]-2-oxo-ethyl}-benzonitrile], the EC50 in experiment [1] (setting [9]) is < 100 nM; in experiment [2] (setting [10]), > 500 nM; in experiment [3] (setting [11]), 100 to 500 nM; in experiment [4] (setting [12]) it was < 100 nM.

In the case of `O=C(c1ccc2[nH]ccc2c1)N1CCN(c2ncnc3[nH]ccc23)CC12CC2` [Example 157, (1H-Indol-5-yl)-[7-(7H-pyrrolo[2,3-d]pyrimidin-4-yl)-4,7-diaza-spiro[2.5]oct-4-yl]-methanone], the EC50 was < 100 nM in experiment [1] (setting [5]), 100 to 500 nM in experiment [2] (setting [6]), < 100 nM in experiment [3] (setting [7]) and < 100 nM in experiment [4] (setting [8]).

On to `O=C(c1ccc2sccc2c1)N1CCN(c2ncnc3[nH]ccc23)CC12CC2` [Example 106, Benzo[b]thiophen-5-yl-[7-(7H-pyrrolo[2,3-d]pyrimidin-4-yl)-4,7-diaza-spiro[2.5]oct-4-yl]-methanone], for which the EC50 in experiment [1] (setting [5]) is 100 to 500 nM; in experiment [2] (setting [6]), 100 to 500 nM; in experiment [3] (setting [7]), < 100 nM; in experiment [4] (setting [8]) it was < 100 nM.

On to `O=C([C@H]1CC[C@H](O)CC1)N1CCN(c2ncnc3[nH]ccc23)CC12CC2` [Example 158, (4-Hydroxy-cyclohexyl)-[7-(7H-pyrrolo[2,3-d]pyrimidin-4-yl)-4,7-diaza-spiro[2.5]oct-4-yl]-methanone], for which the EC50 in experiment [1] (setting [5]) was 100 to 500 nM; in experiment [2] (setting [6]) it was > 500 nM; in experiment [3] (setting [7]), 100 to 500 nM; in experiment [4] (setting [8]) it was < 100 nM.

For the compound `N#CCOc1cccc(CC(=O)N2CCN(c3ncnc4[nH]ccc34)CC23CC3)c1` [Example 70, (3-{2-Oxo-2-[7-(7H-pyrrolo[2,3-d]pyrimidin-4-yl)-4,7-diaza-spiro[2.5]oct-4-yl]-ethyl}-phenoxy)-acetonitrile], the EC50 was 100 to 500 nM in experiment [1] (setting [5]), > 500 nM in experiment [2] (setting [6]), 100 to 500 nM in experiment [3] (setting [7]) and 100 to 500 nM in experiment [4] (setting [8]).

As for `NS(=O)(=O)c1ccc(C(=O)N2[C@@H]3CC[C@@H]2CN(c2ncnc4[nH]ccc24)C3)cc1` [Example 353, 4-[3-(7H-Pyrrolo[2,3-d]pyrimidin-4-yl)-3,8-diaza-bicyclo[3.2.1]octane-8-carbonyl]-benzenesulfonamide], the EC50 in experiment [1] (setting [9]), in experiment [2] (setting [10]), in experiment [3] (setting [11]) and in experiment [4] (setting [12]) was < 100 nM each time.

With `O=C(CC(F)(F)F)N1CCN(c2ncnc3[nH]ccc23)CC12CC2` [Example 24, 3,3,3-Trifluoro-1-[7-(7H-pyrrolo[2,3-d]pyrimidin-4-yl)-4,7-diazaspiro[2.5]oct-4-yl]propan-1-one], the 50% effective concentration (EC50) in experiment [1] (setting [5]) was < 100 nM; in experiment [2] (setting [6]), > 500 nM; in experiment [3] (setting [7]) it was < 100 nM; in experiment [4] (setting [8]) it was < 100 nM.
